One experiment addresses ALK1/ACVRL1 (Homo sapiens, UniProt P37023). In words: Kinase assay (33P-ATP filter-binding), ALK1. It counts as biochemical. Conditions: read-out: Kinase Selectivity ALK1/ACVRL1. An outline of the steps: (§1)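 Kinase mixed into substrate in Hepes (pH 7.5)/MgCl2/EGTA/DTT buffer, 1% DMSO. Cpd acoustically dispensed, 20 min RT preinc. Start w/ 33P-ATP, 2 h RT, P81 spot, filter-binding.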

For another experiment, the target named is T1, ALK2/ACVR1 (Homo sapiens, UniProt Q04771).
T1 sequence (Q04771 21-509): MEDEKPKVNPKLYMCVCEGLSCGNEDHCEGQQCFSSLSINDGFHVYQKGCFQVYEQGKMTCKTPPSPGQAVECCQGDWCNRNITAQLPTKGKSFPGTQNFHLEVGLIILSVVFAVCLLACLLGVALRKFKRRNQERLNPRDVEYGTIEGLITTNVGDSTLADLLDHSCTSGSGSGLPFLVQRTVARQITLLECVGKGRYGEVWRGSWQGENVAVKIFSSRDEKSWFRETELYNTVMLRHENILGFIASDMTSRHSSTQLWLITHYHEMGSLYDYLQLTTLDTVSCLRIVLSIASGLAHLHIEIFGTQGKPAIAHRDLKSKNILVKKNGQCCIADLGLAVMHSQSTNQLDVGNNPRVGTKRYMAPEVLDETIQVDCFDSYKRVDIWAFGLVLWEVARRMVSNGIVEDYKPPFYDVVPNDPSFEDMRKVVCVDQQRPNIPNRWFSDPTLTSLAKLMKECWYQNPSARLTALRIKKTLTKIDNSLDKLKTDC
In words: Kinase assay (33P-ATP filter-binding), ALK2. The class given is biochemical. Conditions: 20 mM; read-out: Kinase Selectivity ALK2/ACVR1 (20 mM). On the procedure:
(§2) The kinase assays were carried out briefly as follows. Substrate was prepared in Base Reaction Buffer (20 mM Hepes (pH 7.5), 10 mM MgCl2, 1 mM EGTA, 0.02% Brij35, 0.02 mg/ml BSA, 0.1 mM Na3VO4, 2 mM DTT, 1% DMSO). The indicated kinases was delivered into the substrate solution and allowed to gently mix. Next, the specific compound was delivered in DMSO into the kinase mixture by Acoustic technology (Echo550; nanoliter range), and allowed to incubate for 20 minutes at room temperature. Next, ^33P-ATP was delivered into the reaction mixture to initiate the reaction and allowed to incubate at room temperature. After 2 hours, the reactions were spotted onto P81 ion exchange paper and the kinase activity is detected by the filter-binding method.

The target in a further experiment is T2, ALK2 (Q207D) (Homo sapiens, UniProt Q04771, Q207D).
T2 sequence (Q04771 21-509 Q207D): T1 sequence (Q04771 21-509) with Q187D
Briefly: Kinase assay (33P-ATP filter-binding), ALK2 Q207D. The class given is biochemical. As to conditions: Q207D mutant, 20 mM; read-out: Kinase Selectivity ALK2 (Q207D, 20 mM). On the procedure: as §2

Another experiment has as its target T3, ALK2 (R206H) (Homo sapiens, UniProt Q04771, R206H).
T3 sequence (Q04771 21-509 R206H): T1 sequence (Q04771 21-509) with R186H
Briefly: Kinase assay (33P-ATP filter-binding), ALK2 R206H. Conditions: R206H mutant, 20 mM; read-out: Kinase Selectivity ALK2 (R206H, 20 mM). The class given is biochemical. On the procedure:
as §2

The target of another experiment is ALK3/BMPR1A (Homo sapiens, UniProt P36894). In words: Kinase assay (33P-ATP filter-binding), ALK3. It counts as biochemical. Conditions: 1 mM; read-out: Kinase Selectivity ALK3/BMPR1A (1 mM). An outline of the steps: as §1
Chain of ALK3/BMPR1A (P36894 24-532): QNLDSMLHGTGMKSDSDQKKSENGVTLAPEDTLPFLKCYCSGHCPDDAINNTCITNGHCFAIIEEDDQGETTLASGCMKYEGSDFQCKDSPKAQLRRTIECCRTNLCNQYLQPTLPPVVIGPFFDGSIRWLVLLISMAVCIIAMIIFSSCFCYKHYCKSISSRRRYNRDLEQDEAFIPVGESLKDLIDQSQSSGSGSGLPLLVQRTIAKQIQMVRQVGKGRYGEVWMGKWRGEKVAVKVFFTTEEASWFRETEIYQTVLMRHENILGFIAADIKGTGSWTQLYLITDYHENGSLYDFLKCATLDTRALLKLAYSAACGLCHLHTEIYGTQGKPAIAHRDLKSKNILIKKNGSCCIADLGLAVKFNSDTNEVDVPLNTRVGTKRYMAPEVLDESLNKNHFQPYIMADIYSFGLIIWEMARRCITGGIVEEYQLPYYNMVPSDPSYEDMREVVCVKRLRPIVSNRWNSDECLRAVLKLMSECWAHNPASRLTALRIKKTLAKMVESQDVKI
Experiment [1] relates to BMP-responsive C2C12 mouse myoblast cells stimulated with BMP4. In words: BMP4 cell assay (Id1 promoter-firefly luciferase reporter). As to conditions: Mus musculus; C2C12 cells, BMP4 50 ng/mL, overnight. The class given is cell-based. On the procedure:
The BMP4 cell assay were carried out briefly as follows. Stably transfected BMP-responsive C2C12 mouse myoblast cells (containing the Idl promoter-firefly luciferase reporter) were seeded in 96-well plates and incubated overnight with the compounds and BMP4 (50 ng/mL). The cells were then lysed, and cell extracts were then subjected to the firefly luciferase assay using Steady-Glo luciferase assay kit (Promega). The results were normalized to cell titers, as measured using Cell Titer-Glo luminescence assay (Promega). […] Relative activity was quantified by the ratio of firefly to Renilla luciferase activities using the dual luciferase assay kit (Promega).

Another experiment deals with T4, caALK2 (Homo sapiens, UniProt Q04771, Q207D).
T4 construct: expressed in transfected cells; host or cells: C2C12BRA cells (mouse myoblast, BMP-responsive reporter)
T4 sequence (Q04771 21-509 Q207D): T1 sequence (Q04771 21-509) with Q187D
Briefly: Subtype analysis, C2C12BRA cells transfected with constitutively active caALK2. It counts as cell-based. As to conditions: Primary In Vitro Data, constitutively active ALK2. On the procedure:
The BMP4 cell assay were carried out briefly as follows. Stably transfected BMP-responsive C2C12 mouse myoblast cells (containing the Idl promoter-firefly luciferase reporter) were seeded in 96-well plates and incubated overnight with the compounds and BMP4 (50 ng/mL). The cells were then lysed, and cell extracts were then subjected to the firefly luciferase assay using Steady-Glo luciferase assay kit (Promega). The results were normalized to cell titers, as measured using Cell Titer-Glo luminescence assay (Promega). For subtype analysis, C2C12BRA cells were transiently transfected with plasmids (0.1 μg) expressing constitutively active forms of the BMP type I receptors (caALK2, caALK3 or caALK6) using Lipofectamine kit (Invitrogen) in 96 well plates; 0.1 μg of pRL-TK Renilla luciferase (Promega) was used to control for transfection efficiency. Relative activity was quantified by the ratio of firefly to Renilla luciferase activities using the dual luciferase assay kit (Promega).

The target of another experiment is caALK1 (Homo sapiens, UniProt P37023). In words: Subtype analysis, constitutively active caALK1. It counts as cell-based. As to conditions: Primary In Vitro Data, constitutively active ALK1.
Chain of caALK1 (P37023 whole entry Q201D, form open): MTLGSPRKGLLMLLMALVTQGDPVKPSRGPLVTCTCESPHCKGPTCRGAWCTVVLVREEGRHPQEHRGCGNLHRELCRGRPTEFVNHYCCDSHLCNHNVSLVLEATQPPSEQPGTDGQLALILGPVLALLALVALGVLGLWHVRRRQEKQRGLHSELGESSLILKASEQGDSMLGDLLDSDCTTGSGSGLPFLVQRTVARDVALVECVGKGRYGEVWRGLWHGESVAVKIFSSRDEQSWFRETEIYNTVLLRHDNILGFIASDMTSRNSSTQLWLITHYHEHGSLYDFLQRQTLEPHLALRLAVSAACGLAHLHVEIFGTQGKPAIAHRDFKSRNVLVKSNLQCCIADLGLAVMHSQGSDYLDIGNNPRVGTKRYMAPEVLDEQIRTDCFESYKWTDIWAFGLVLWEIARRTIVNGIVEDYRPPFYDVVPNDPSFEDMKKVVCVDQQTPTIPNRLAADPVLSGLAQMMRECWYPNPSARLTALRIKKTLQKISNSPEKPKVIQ

Numbering of substitutions follows the chain as printed.

The values below come from patent publication US10745400B2, “Inhibition of BMP signaling, compounds, compositions and uses thereof” (Vanderbilt University, priority 2018, dated 2020).

Chain of ALK1/ACVRL1 (P37023 22-503): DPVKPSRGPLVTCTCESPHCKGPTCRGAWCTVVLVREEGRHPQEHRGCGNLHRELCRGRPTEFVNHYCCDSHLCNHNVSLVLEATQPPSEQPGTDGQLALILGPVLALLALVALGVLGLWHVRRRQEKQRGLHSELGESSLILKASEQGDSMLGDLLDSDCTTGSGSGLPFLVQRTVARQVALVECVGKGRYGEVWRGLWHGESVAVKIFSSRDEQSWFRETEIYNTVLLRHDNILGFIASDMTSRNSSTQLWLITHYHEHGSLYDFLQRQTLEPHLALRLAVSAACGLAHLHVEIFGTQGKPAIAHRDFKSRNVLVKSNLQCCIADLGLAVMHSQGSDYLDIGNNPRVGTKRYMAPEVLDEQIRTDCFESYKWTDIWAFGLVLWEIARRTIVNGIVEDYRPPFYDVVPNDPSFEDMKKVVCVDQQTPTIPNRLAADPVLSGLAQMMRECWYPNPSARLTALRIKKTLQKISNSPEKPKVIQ

For the molecule `CN1CCN(c2ccc(-c3ccn4c(-c5ccnc6ncccc56)cnc4c3)cc2)CC1` [Compound 29], the IC50 on ALK1/ACVRL1 is 767 nM; at ALK2/ACVR1, 84.9 nM; at ALK2 (Q207D) it was 77.6 nM; on ALK2 (R206H), 88.2 nM; on ALK3/BMPR1A, 17.4 nM; in experiment [1] it was 112 nM. Moreover, the IC50 against caALK2 was 16 nM; on caALK1, 178 nM.

In the case of `Cc1cc(-c2cnc3cc(-c4ccc(N5CCN(C)CC5)cc4)ccn23)c2cccnc2n1` [Compound 28], the IC50 was 1200 nM on ALK1/ACVRL1; 114 nM on ALK2/ACVR1; 79.1 nM at ALK2 (Q207D); 105 nM on ALK2 (R206H); under 5.08 nM at ALK3/BMPR1A; 66 nM in experiment [1]. Also, the IC50 turned out to be 44 nM against caALK2 and 189 nM on caALK1.
